# Test system: hepatocytes
# Experiment: Seq-Well scRNA-Seq of hepatocytes after APAP overdose (signature scores, DEG vs untreated)
# Assay type: in vivo, mouse
# Conditions: time point A6 vs untreated (UT)
structure (smiles),measurement,value
"CC(=O)Nc1ccc(O)cc1 [APAP, acetaminophen]",avg_logFC Mrpl42,−0.2845
same,avg_logFC Mrps18c,−0.3663
same,avg_logFC Msn,0.2602
same,avg_logFC Mup2,−0.5045
same,avg_logFC Mvd,−0.2704
same,avg_logFC Myo1b,0.2624
same,avg_logFC Naprt1,−0.3381
same,avg_logFC Ndufa1,−0.3645
same,avg_logFC Ndufb3,−0.3272
same,avg_logFC Ndufb8,−0.3481
same,avg_logFC Ndufc1,−0.3444
same,avg_logFC Ndufs4,−0.3132
same,avg_logFC Ndufs8,−0.3614
same,avg_logFC Ndufv3,−0.3971
same,avg_logFC Nedd8,−0.3564
same,avg_logFC Nedd41,0.2812
same,avg_logFC Net1,0.3479
same,avg_logFC Nop10,−0.2919
same,avg_logFC Nrp1,0.3608
same,avg_logFC Nucks1,0.3558
same,avg_logFC Nudt4,0.2542
same,avg_logFC Oaz1,−0.3472
same,avg_logFC Otc,−0.299
same,avg_logFC Pacsin2,0.3708
same,avg_logFC Palld,0.3414
same,avg_logFC Pank1,−0.3527
same,avg_logFC Paqr9,−0.3323
same,avg_logFC Pet100,−0.28
same,avg_logFC Phc2,0.312
same,avg_logFC Pi4k2a,0.3536
same,avg_logFC Pik3c2a,0.3249
same,avg_logFC Plk3,0.4166
same,avg_logFC Pnkd,−0.2928
same,avg_logFC Ppp1r12a,0.3563
same,avg_logFC Prdx5,−0.2821
same,avg_logFC Proc,−0.2707
same,avg_logFC Psmb1,−0.3585
same,avg_logFC Psmb3,−0.3303
same,avg_logFC Psmb6,−0.3194
same,avg_logFC Ptp4a1,0.2627
same,avg_logFC Ptpn2,0.2734
same,avg_logFC Ptpn12,0.3342
same,avg_logFC Purb,0.3525
same,avg_logFC Pvrl2,−0.2613
same,avg_logFC Pxk,0.2819
same,avg_logFC Pxmp2,−0.3671
same,avg_logFC Rab6a,0.3234
same,avg_logFC Rbm25,0.4215
same,avg_logFC Rexo2,−0.3263
same,avg_logFC Rlim,0.3102
same,avg_logFC Rnaseh2c,−0.3257
same,avg_logFC Romo1,−0.3359
same,avg_logFC Rps3,−0.3493
same,avg_logFC Rps9,−0.3718
same,avg_logFC Rps10,−0.3369
same,avg_logFC Rps21,−0.3645
same,avg_logFC Rsl1d1,0.3461
same,avg_logFC S100a1,−0.3743
same,avg_logFC Sar1b,−0.3079
same,avg_logFC Sbno1,0.3671
same,avg_logFC Sc4mol,−0.3262
same,avg_logFC Scaf11,0.3598
same,avg_logFC Scd1,−0.4661
same,avg_logFC Sdhb,−0.2896
same,avg_logFC Sdhd,−0.3353
same,avg_logFC Sdr9c7,−0.26
same,avg_logFC Sdsl,0.2593
same,avg_logFC Sec61b,−0.2903
same,avg_logFC Selk,−0.3383
same,avg_logFC Sf1,0.3023
same,avg_logFC Sfpq,0.394
same,avg_logFC Sgk1,0.2843
same,avg_logFC Shb,0.3152
same,avg_logFC Sigmar1,−0.3055
same,avg_logFC Sirt3,−0.346
same,avg_logFC Slc2a2,−0.3123
same,avg_logFC Slc10a1,−0.3258
same,avg_logFC Slco1a1,−0.3628
same,avg_logFC Slco1a4,0.3137
same,avg_logFC Slirp,−0.3085
same,avg_logFC Smap2,0.3489
same,avg_logFC Smdt1,−0.3673
same,avg_logFC Smg1,0.335
same,avg_logFC Srsf11,0.4012
same,avg_logFC Stbd1,−0.2732
same,avg_logFC Stk17b,0.2911
same,avg_logFC Stom,0.3232
same,avg_logFC Sult1d1,−0.3165
same,avg_logFC Tbl1xr1,0.3075
same,avg_logFC Tcea3,−0.355
same,avg_logFC Tceb2,−0.3207
same,avg_logFC Tgm2,0.3993
same,avg_logFC Tgoln1,0.2657
same,avg_logFC Timm8b,−0.3936
same,avg_logFC Tjp1,0.2862
same,avg_logFC Tm7sf2,−0.3164
same,avg_logFC Tmbim6,−0.2711
same,avg_logFC Tmem37,−0.2822
same,avg_logFC Tmem86b,−0.2582
same,avg_logFC Tmem106b,0.2802
same,avg_logFC Tmem147,−0.2838

# From patent US20230053540A1, “TREATMENT OF LIVER INJURY” (Massachusetts Institute of Technology, priority 2019, published 2023)
